Measured values reported in patent US9585871B2, “Method for treating and curing leishmaniosis using fexinidazole” (Merial Limited, priority 2013, dated 2017).
“And” between values parts separate entries of the source, which are not always exact repeats. Equal values may be shown once. Read-outs that look alike come from different tables or passages of the source.

Assays:
[1] = Multiple dosing study in dogs: systemic exposure (plasma) to fexinidazole and its metabolites; type: in vivo, dog; conditions: dog, plasma, po; for AUC(0-t): read-out: AUC0-t (last)
Procedure: In an embodiment, the fexinidazole may be administered to the canine as an aqueous oral suspension, comprising 5% TWEEN 80 and 0.5% Methyl cellulose 400 cP (METHOCEL). Provided in this format, fexinidazole suspensions of 5, 20, and 80 mg fexinidazole/mL may be prepared such that 10 mL of each concentration contains 50, 200, and 800 mg fexinidazole, respectively.
Moreover, inventors expect that a wide variety of dosing regimens are now available to the skilled person to achieve the necessary and sufficient fexinidazole plasma levels. For example, and as further outlined in the Examples below, any dosing regimen that produces substantially similar fexinidazole plasma levels, as compared to those levels produced by giving the dogs about 60 mg/kg/day for about twenty-eight days, is expected to substantially or completely eliminate the Leishmania parasites. Table 1 presents the systemic fexinidazole exposure following dosing of dogs with 50, 200, and 800 mg/kg/day.

[2] = Toxicology summary: maximum dose after oral administration, mice; type: in vivo
Source text: (§1) Toxicology summary. In mice and rats, the maximum fexinidazole (FEX) dose after oral administration is 10 g/kg of body weight. […] Finally, as regards PK, labeled FEX and its metabolites were excreted within 3 days in the feces (52-58%) and urine (36-40%).

[3] = Toxicology studies in beagles, 90 days (13 weeks); type: in vivo; conditions: daily doses up to 125 mg/kg/day for 90 days (13 weeks)
Source text: as §1

[4] = tested on: chromosome damage; experiment: Chromosome damage in vitro or in vivo
Source text: as §1

[5] = Excretion and metabolites of labeled FEX; type: in vivo
Source text: as §1

[6] = tested on: L. infantum; experiment: Clinical study in dogs infected with L. infantum: IFAT antibody titers; type: in vivo; conditions: Glucantime 100 mg/kg dNMA SC or Fexinidazole 60 mg/kg PO once daily Days 0-27
Procedure: In a clinical study, dogs infected with L. infantum were treated with meglumine antimoniate (GLUCANTIME®, Merial) as a positive control, or FEX (Table 5). Eight blocks of two animals were formed based antibody titers and biological scores. Six dogs in each group were naturally infected by housing them in an endemic area for two years and two dogs in each group were artificially infected by intravenous administration of a known quantity of parasites recovered from the spleen of an infected dog.
The first group (FEX) was compared to the second group, which was treated with 27 mg/kg GLUCANTIME (meglumine antimoniate, or 100 mg/kg of dNMA) “GLU”), over 28 days.
Variables. The Clinical Score is an additive score of various clinical signs (body condition, lymphadenopathy, splenomegaly, appetite, behavior, mucous membrane color, dermatopathology, ocular signs, digestive signs, arthropathy) evaluated before treatment and on Days 7, 14, 21, 28, 57, 184, 219, 254, 282, 310, 345, 400 and 436. The Overall Biological Score is an additive score based on the severity of changes in hematology/chemistry values (creatinine, urine protein/creatinine, Hct, globulin, ALAT), evaluated pretreatment and on Days 28, 57, and 181. The L. infantum immunofluorescent antibody titers (IFAT) were determined from samples collected before treatment and on Days 28, 57, and 181. Finally, quantitative PCR (qPCR) for L. infantum was conducted on spleen aspirates collected before treatment and on Days 28, 57, 142, 184, and 373.

[7] = female, 200 mg/kg/day, Female Dog, 200 mg/kg/day oral, D14, mean ± SD, n = 3
[8] = female, 200 mg/kg/day, Female Dog, 200 mg/kg/day oral, D28, mean ± SD, n = 3
[9] = female, 800 mg/kg/day, Female Dog, 800 mg/kg/day oral, D1, mean ± SD, n = 5
[10] = female, 800 mg/kg/day, Female Dog, 800 mg/kg/day oral, D14, mean ± SD, n = 5
[11] = female, 800 mg/kg/day, Female Dog, 800 mg/kg/day oral, D28, mean ± SD, n = 5
[12] = male, 50 mg/kg/day, Male Dog, 50 mg/kg/day oral, D1, mean ± SD, n = 3
[13] = male, 50 mg/kg/day, Male Dog, 50 mg/kg/day oral, D14, mean ± SD, n = 3
[14] = male, 50 mg/kg/day, Male Dog, 50 mg/kg/day oral, D28, mean ± SD, n = 3
[15] = male, 200 mg/kg/day, Male Dog, 200 mg/kg/day oral, D1, mean ± SD, n = 3
[16] = male, 200 mg/kg/day, Male Dog, 200 mg/kg/day oral, D14, mean ± SD, n = 3
[17] = male, 200 mg/kg/day, Male Dog, 200 mg/kg/day oral, D28, mean ± SD, n = 3
[18] = male, 800 mg/kg/day, Male Dog, 800 mg/kg/day oral, D1, mean ± SD, n = 5
[19] = male, 800 mg/kg/day, Male Dog, 800 mg/kg/day oral, D14, mean ± SD, n = 5
[20] = male, 800 mg/kg/day, Male Dog, 800 mg/kg/day oral, D28, mean ± SD, n = 5
[21] = labeled FEX and its metabolites, within 3 days

## CSc1ccc(OCc2ncc([N+](=O)[O-])n2C)cc1 [Fexinidazole, fexinidazole]
[1]; female, 200 mg/kg/day, Female Dog, 200 mg/kg/day oral, D1, mean ± SD, n = 3
  AUC(0-t): 454 ± 119 ng·h/mL
[1]; [7]
  Cmax: 77.7 ± 50.8 ng/mL
  Tmax: 2 h
  AUC(0-t): 443 ± 217 ng·h/mL
[1]; [8]
  Cmax: 73 ± 12 ng/mL
  Tmax: 1 h
  AUC(0-t): 377 ± 83.5 ng·h/mL
[1]; [9]
  Cmax: 184 ± 75.6 ng/mL
  Tmax: 1.2 ± 0.45 h
  AUC(0-t): 895 ± 437 ng·h/mL
[1]; [10]
  Cmax: 152 ± 44 ng/mL
  Tmax: 1.4 ± 0.55 h
  AUC(0-t): 1170 ± 309 ng·h/mL
[1]; [11]
  Cmax: 101 ± 47.1 ng/mL
  Tmax: 1 h
  AUC(0-t): 956 ± 378 ng·h/mL
[1]; [12]
  Cmax: 31.2 ± 12.4 ng/mL
  Tmax: 0.5 h
  AUC(0-t): 140 ± 147 ng·h/mL
[1]; [13]
  Cmax: 26.5 ± 13 ng/mL
  Tmax: 0.5 h
  AUC(0-t): 52.1 ± 29.4 ng·h/mL
[1]; [14]
  Cmax: 20.3 ± 7.89 ng/mL
  Tmax: 1 h
  AUC(0-t): 124 ± 67 ng·h/mL
[1]; [15]
  Cmax: 54.9 ± 10.8 ng/mL
  Tmax: 1 ± 0.87 h
  AUC(0-t): 419 ± 61.4 ng·h/mL
[1]; [16]
  Cmax: 78.1 ± 23.5 ng/mL
  Tmax: 1 ± 0.87 h
  AUC(0-t): 452 ± 41.1 ng·h/mL
[1]; [17]
  Cmax: 57.9 ± 12.5 ng/mL
  Tmax: 1 h
  AUC(0-t): 395 ± 15.8 ng·h/mL
[1]; [18]
  Cmax: 100 ± 21.2 ng/mL
  Tmax: 1.1 ± 0.55 h
  AUC(0-t): 776 ± 182 ng·h/mL
[1]; [19]
  Cmax: 128 ± 56.9 ng/mL
  Tmax: 1 h
  AUC(0-t): 929 ± 268 ng·h/mL
[1]; [20]
  Cmax: 86.2 ± 38.5 ng/mL
  Tmax: 1.2 ± 0.4 h
  AUC(0-t): 736 ± 141 ng·h/mL
[2]
  maximum dose after oral administration: 10 g/kg of body weight
[3]
  adverse events (AEs): no observed adverse events
[4]
  chromosome damage: does not induce chromosome damage
[5]; feces and urine
  time to excretion of labeled FEX and its metabolites: ≤ 3 days
[5]; in vivo
  main metabolites: the sulfoxide, the sulfone, and the corresponding phenolic fragments
[5]; [21]
  excretion in the feces: 52-58%
  excretion in the urine: 36-40%
[6]; Day 28, individual dogs
  L. infantum IFAT Antibody Titers: 1/80
[6]; Day 57, individual dogs
  L. infantum IFAT Antibody Titers: 1/640 (2×) and 1/320 and 1/80
[6]; Day 181, individual dogs
  L. infantum IFAT Antibody Titers: 1/640 (2×) and 1/320 and 1/80
